Test results: patent US20060241172A1, “Benzodioxane and benzodioxolane derivatives and uses thereof” (Wyeth, priority 2005, published 2006)
Structures can show the parent of a compound that is named as a salt.

system: not given; assay: not given; conditions: not given

Row | Structure (SMILES) | melting point [°C]
1 | Cc1cccc(C)c1-c1cc(Cl)cc2c1O[C@@H](CN)CO2 (as salt: hydrochloride) [Compound I-69, (2S)-[6-Chloro-8-(2,6-dimethyl-phenyl)-2,3-dihydro-benzo[1,4]dioxin-2-yl]-methyl amine] | 220 to 222
2 | NC[C@H]1COc2ccc(Cl)c(-c3ccccc3Cl)c2O1 (as salt: hydrochloride) [Compound I-70, (2S)-[7-Chloro-8-(2-chloro-phenyl)-2,3-dihydro-benzo[1,4]dioxin-2-yl]-methylamine] | 105
3 | NC[C@H]1COc2ccc(F)c(-c3ccccc3Cl)c2O1 (as salt: hydrochloride) [Compound I-71, (2S)-[8-(2-Chloro-phenyl)-7-fluoro-2,3-dihydro-benzo[1,4]dioxin-2-yl]-methylamine] | 208 to 210
4 | NC[C@H]1COc2ccc(F)c(-c3ccc(Cl)cc3Cl)c2O1 (as salt: hydrochloride) [Compound I-75, ((2S)-7-Fluoro-8-(2,4-di-chloro-phenyl)-2,3-dihydrobenzo[b][1,4]dioxin-2-yl) methanamine] | 65
5 | COc1ccccc1-c1cc(F)cc2c1OC(CN)O2 (stereo not shown) (as salt: hydrochloride) [Compound I-76, 1-[6-Fluoro-4-(2-methoxyphenyl)-1,3-benzodioxol-2-yl]methanamine] | 184 to 186
6 | NCC1Oc2cc(F)cc(-c3ccccc3)c2O1 (stereo not shown) (as salt: hydrochloride) [Compound I-77, 1-(6-Fluoro-4-phenyl-1,3-benzodioxol-2-yl)methanamine] | 227 to 229
7 | NCC1Oc2cc(F)cc(-c3cccc(Cl)c3)c2O1 (stereo not shown) (as salt: hydrochloride) [Compound I-78, 1-[4-(3-Chlorophenyl)-6-fluoro-1,3-benzodioxol-2-yl]methanamine] | 267 to 270
8 | NCC1Oc2cc(F)cc(-c3ccc(Cl)cc3)c2O1 (stereo not shown) (as salt: hydrochloride) [Compound I-79, 1-[4-(4-Chloro-phenyl)-6-fluoro-1,3-benzodioxol-2-yl]methanamine] | 262 to 264
9 | Cc1ccccc1-c1cc(F)cc2c1OC(CN)O2 (stereo not shown) (as salt: hydrochloride) [Compound I-80, 1-[4-(2-Methyl-phenyl)-6-fluoro-1,3-benzodioxol-2-yl]methanamine] | 197 to 200
10 | NCC1Oc2cc(F)cc(-c3cc(Cl)ccc3Cl)c2O1 (stereo not shown) (as salt: hydrochloride) [Compound I-81, 1-[4-(2,5-Dichloro-phenyl)-6-fluoro-1,3-benzodioxol-2-yl]methanamine] | 204 to 205
11 | NCC1Oc2cc(F)cc(-c3ccccc3C(F)(F)F)c2O1 (stereo not shown) (as salt: hydrochloride) [Compound I-82, 1-[4-(2-Trifluoromethyl-phenyl)-6-fluoro-1,3-benzodioxol-2-yl]methanamine] | 178 to 180
12 | NCC1Oc2cc(F)cc(-c3ccccc3F)c2O1 (stereo not shown) (as salt: hydrochloride) [Compound I-83, 1-[4-(2-Fluoro-phenyl)-6-fluoro-1,3-benzodioxol-2-yl]methanamine] | 234 to 235
13 | NCC1Oc2cc(F)cc(-c3ccccc3Cl)c2O1 (stereo not shown) (as salt: hydrochloride) [Compound I-84, 1-[4-(2-Chloro-phenyl)-6-fluoro-1,3-benzodioxol-2-yl]methanamine] | 192 to 194
14 | NC[C@H]1Oc2cc(F)cc(-c3c(Cl)cccc3Cl)c2O1 (as salt: hydrochloride) [Compound I-85, 1-[(2S)-4-(2,6-dichlorophenyl)-6-fluoro-1,3-benzodioxol-2-yl]methanamine] | 224 to 225
15 | NC[C@@H]1Oc2cc(F)cc(-c3c(Cl)cccc3Cl)c2O1 (as salt: hydrochloride) [Compound I-86, 1-[(2R)-4-(2,6-dichlorophenyl)-6-fluoro-1,3-benzodioxol-2-yl]methanamine] | 206 to 208
16 | CNCC1Oc2cc(F)cc(-c3ccccc3Cl)c2O1 (stereo not shown) (as salt: hydrochloride) [Compound I-87, 1-[4-(2-Chlorophenyl)-6-fluoro-1,3-benzodioxol-2-yl]-N-methylmethanamine] | 132 to 134

Row | Structure (SMILES) | melting point [°C]
17 | CCNCC1Oc2cc(F)cc(-c3ccccc3Cl)c2O1 (stereo not shown) (as salt: hydrochloride) [Compound I-88, N-{[4-(2-Chlorophenyl)-6-fluoro-1,3-benzodioxol-2-yl]methyl}ethanamine] | 182 to 183
18 | CN(C)CC1Oc2cc(F)cc(-c3ccccc3Cl)c2O1 (stereo not shown) (as salt: hydrochloride) [Compound I-89, 1-[4-(2-chlorophenyl)-6-fluoro-1,3-benzodioxol-2-yl]-N,N-dimethylmethanamine] | 211 to 212
19 | NCC1Oc2cc(Cl)cc(-c3ccccc3Cl)c2O1 (stereo not shown) (as salt: hydrochloride) [Compound I-90, [6-Chloro-4-(2-chloro-phenyl)-benzo[1,3]dioxol-2-yl]-methylamine] | > 250
20 | Cc1ccccc1-c1cc(Cl)cc2c1OC(CN)O2 (stereo not shown) (as salt: hydrochloride) [Compound I-91, [6-Chloro-4-(2-methyl-phenyl)-benzo[1,3]dioxol-2-yl]-methylamine] | > 250
21 | COc1ccccc1-c1cc(Cl)cc2c1OC(CN)O2 (stereo not shown) (as salt: hydrochloride) [Compound I-92, [6-Chloro-4-(2-methoxy-phenyl)-benzo[1,3]dioxol-2-yl]-methylamine] | 245 to 246
22 | COc1ccc(Cl)cc1-c1cc(Cl)cc2c1OC(CN)O2 (stereo not shown) (as salt: hydrochloride) [Compound I-94, [6-Chloro-4-(2-methoxy-5-chloro-phenyl)-benzo[1,3]dioxol-2-yl]-methylamine] | 228 to 230
23 | COc1cccc(-c2cc(Cl)cc3c2OC(CN)O3)c1OC (stereo not shown) (as salt: hydrochloride) [Compound I-95, [6-Chloro-4-(2,3-dimethoxy-phenyl)-benzo[1,3]dioxol-2-yl]-methylamine] | 228 to 230
24 | NCC1Oc2cc(Cl)cc(-c3ccc(Cl)cc3Cl)c2O1 (stereo not shown) (as salt: hydrochloride) [Compound I-96, [6-Chloro-4-(2,4-dichloro-phenyl)-benzo[1,3]dioxol-2-yl]-methylamine] | > 250
25 | Cc1cc(Cl)ccc1-c1cc(Cl)cc2c1OC(CN)O2 (stereo not shown) (as salt: hydrochloride) [Compound I-97, [6-Chloro-4-(4-chloro-2-methyl-phenyl)-benzo[1,3]dioxol-2-yl]-methylamine] | > 250
26 | NCC1Oc2cc(Cl)cc(-c3cc(Cl)ccc3Cl)c2O1 (stereo not shown) (as salt: hydrochloride) [Compound I-98, [6-Chloro-4-(2,5-dichloro-phenyl)-benzo[1,3]dioxol-2-yl]-methylamine] | 246 to 248
27 | NCC1Oc2cc(Cl)cc(-c3cc(F)ccc3F)c2O1 (stereo not shown) (as salt: hydrochloride) [Compound I-99, [6-Chloro-4-(2,5-difluoro-phenyl)-benzo[1,3]dioxol-2-yl]-methylamine] | > 250
28 | COc1ccc(OC)c(-c2cc(Cl)cc3c2OC(CN)O3)c1 (stereo not shown) (as salt: hydrochloride) [Compound I-100, [6-Chloro-4-(2,5-dimethoxy-phenyl)-benzo[1,3]dioxol-2-yl]-methylamine] | 225 to 227
29 | NCC1Oc2cc(Cl)cc(-c3ccccc3-c3ccccc3)c2O1 (stereo not shown) (as salt: hydrochloride) [Compound I-101, [6-Chloro-4-biphenyl-benzo[1,3]dioxol-2-yl]-methylamine] | 196 to 198
30 | NC[C@H]1COc2cccc(-c3c(Cl)cccc3Cl)c2O1 (as salt: salt) [Compound I-46, {[(2S)-8-(2,6-Dichlorophenyl)-2,3-dihydro-1,4-benzodioxin-2-yl]methyl}amine] | 165 to 167
31 | NC[C@H]1COc2cc(F)cc(-c3c(Cl)cccc3Cl)c2O1 (as salt: salt) [Compound I-47, {[(2S)-8-(2,6-Dichlorophenyl)-6-fluoro-2,3-dihydro-1,4-benzodioxin-2-yl]methyl}amine] | 165 to 167
32 | NCC1Oc2cc(Cl)cc(-c3ccccc3F)c2O1 (stereo not shown) (as salt: salt) [Compound I-93, [6-Chloro-4-(2-fluoro-phenyl)-benzo[1,3]dioxol-2-yl]-methylamine] | > 250

target: T1, human 5-hydroxytryptamine-2C (h5-HT2C) receptor (Homo sapiens, UniProt P28335); assay: 5-HT2C binding: [125I]DOI displacement in membranes of transfected CHO cells; conditions: read-out: 5-HT2C Binding Ki avg
T1 construct: expressed in transfected cells; host or cells: CHO (Chinese Hamster Ovary) cells; membranes
T1 sequence (P28335 33-458): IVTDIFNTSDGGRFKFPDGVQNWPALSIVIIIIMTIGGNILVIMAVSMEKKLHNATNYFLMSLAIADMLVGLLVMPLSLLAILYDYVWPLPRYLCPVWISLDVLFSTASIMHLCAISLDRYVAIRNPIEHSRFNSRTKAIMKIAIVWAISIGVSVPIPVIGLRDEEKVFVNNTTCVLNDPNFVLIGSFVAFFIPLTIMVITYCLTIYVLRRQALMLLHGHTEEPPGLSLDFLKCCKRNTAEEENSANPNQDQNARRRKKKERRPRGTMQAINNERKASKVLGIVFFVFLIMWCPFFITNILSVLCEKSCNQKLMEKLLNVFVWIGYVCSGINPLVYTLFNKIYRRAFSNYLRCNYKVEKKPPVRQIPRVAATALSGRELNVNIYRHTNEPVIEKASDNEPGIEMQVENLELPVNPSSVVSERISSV

Row | Structure (SMILES) | Ki [nM]
33 | C[C@]1(CN)COc2cccc(-c3ccccc3)c2O1 [Compound I-48, {[(2S)-2-Methyl-8-phenyl-2,3-dihydro-1,4-benzodioxin-2-yl]methyl}amine] | > 200
34 | C[C@]1(CN)COc2cccc(-c3cccc(Cl)c3)c2O1 [Compound I-50, {[(2S)-8-(3-Chlorophenyl)-2-methyl-2,3-dihydro-1,4-benzodioxin-2-yl]methyl}amine] | > 200
35 | C[C@]1(CN)COc2cccc(-c3ccc(Cl)cc3)c2O1 [Compound I-51, {[(2S)-8-(4-Chlorophenyl)-2-methyl-2,3-dihydro-1,4-benzodioxin-2-yl]methyl}amine] | > 200
36 | COc1ccccc1-c1cccc2c1O[C@@](C)(CN)CO2 [Compound I-52, {[(2S)-8-(2-Methoxyphenyl)-2-methyl-2,3-dihydro-1,4-benzodioxin-2-yl]methyl}amine] | > 200
37 | C[C@]1(CN)COc2cccc(-c3ccsc3)c2O1 [Compound I-53, {[(2S)-2-Methyl-8-thien-3-yl-2,3-dihydro-1,4-benzodioxin-2-yl]methyl}amine] | > 200
